Results reported in patent US8143003B2, “Method for detecting oral squamous-cell carcinoma” (Fujifilm Corporation, priority 2008, dated 2012).
“Also recorded” adds a separate entry of the source.

Columns and labels:
Type in all cases: cell-based
[1] = test system: MTNR1A gene expression in oral squamous-cell carcinoma cell lines (TOSCa-50, ZA, and NA); assay: Recovery of MTNR1A gene expression by demethylation, examined by RT-PCR
Method: (C) MTNR1A expression was recovered by a demethylation treatment performed on cells in which the gene was not expressed. The cells were treated using a 1 μM or 5 μM demethylating reagent 5-aza-dCyd for 5 days and/or using a deacetylation inhibitory agent TSA (100 ng/ml) for 12 hours. GAPDH was used as an internal control.
Specifically, single-stranded cDNA was synthesized from the RNA extracted from each cultured cell line using the SuperScript First-Strand Synthesis System (Invitrogen). Moreover, a glyceraldehyde-3-phosphate dehydrogenase (GAPDH) gene was used as a control.
In order to examine if the suppressed expression of the MTNR1A gene was due to DNA methylation, oral squamous-cell carcinoma cell lines (TOSCa-50, ZA, and NA) that had not expressed the MTNR1A gene were treated with a 1 μM or 5 μM demethylating reagent 5-aza-dCyd for 5 days and/or with a deacetylation inhibitory agent TSA (100 ng/ml) for 12 hours. RNAs were extracted from these cells, and MTNR1A gene expression was then examined by RT-PCR (FIG. 2c).

[2] = test system: DKFZP564J gene expression in cell lines with decreased expression; assay: DKFZP564J gene expression after treatment with 5-aza-dCyd and/or TSA
Method: (§1) (A) The expression status of a DKFZP564J gene and a CYP4V2 gene in cell lines in which the expression levels of the aforementioned genes had been decreased, which were treated with 5-aza-dCyd and/or TSA.

[3] = test system: CYP4V2 gene expression in cell lines with decreased expression; assay: CYP4V2 gene expression after treatment with 5-aza-dCyd and/or TSA
Method: as §1

| CYP4V2 gene expression [3] | SMILES | MTNR1A gene expression (RT-PCR) ([1]; 1 μM or 5 μM 5-aza-dCyd for 5 days, NA cells not expressing MTNR1A) | DKFZP564J gene expression [2] | MTNR1A gene expression (RT-PCR) ([1]; TSA 100 ng/ml for 12 hours, NA cells) |
| --- | --- | --- | --- | --- |
| gene expression was not recovered | Nc1ncn([C@H]2C[C@H](O)[C@@H](CO)O2)c(=O)n1 [5-aza-dCyd, 5-azadeoxycytidine] | recovers its gene expression; also recorded: possible to recover the expression level of the MTNR1A gene | gene expression was not recovered | – |
| – | CC(/C=C/C(=O)NO)=C\[C@@H](C)C(=O)c1ccc(N(C)C)cc1 [TSA] | – | – | no differences in MTNR1A gene expression |
